Results reported in US12668600B2 (Kumquat Biosciences Inc., priority 2023, dated 2026).

Legend:
Assay type in all cases: biochemical
KRAS G12V = target: T1, KRAS G12V (Homo sapiens, UniProt P01116, G12V); experiment: HTRF KRAS-SOS1 interaction assay, KRAS G12V; details: binned ≤2 μM / >2 μM, read-out: Inhibition of KRAS G12V (IC50)
T1 construct: made in house; host or cells: E. coli, e.g. BL21 (DE3)
Outline: (§1)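 GST-KRAS + anti-GST-Eu; His-hSOS1 + anti-6His-XL665; cpd in DMSO, duplicate, 10–0.01 μM; ~10 min incubation; HTRF ex 337/em 620, 665 nm; IC50 fitted on 665/620 ratio.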

KRAS WT = target: T2, KRAS WT (Homo sapiens, UniProt P01116); experiment: HTRF KRAS-SOS1 interaction assay, wildtype KRAS; details: binned ≤2 μM / >2 μM, read-out: Inhibition of KRAS WT (IC50)
T2 construct: made in house; host or cells: E. coli, e.g. BL21 (DE3)
Outline: as §1

KRAS G12D = target: T3, KRAS G12D (Homo sapiens, UniProt P01116, G12D); experiment: HTRF KRAS-SOS1 interaction assay, KRAS G12D; details: binned ≤2 μM / >2 μM, read-out: Inhibition of KRAS G12D (IC50)
T3 construct: made in house; host or cells: E. coli, e.g. BL21 (DE3)
Outline: as §1

KRAS G12S = target: T4, KRAS G12S (Homo sapiens, UniProt P01116, G12S); experiment: HTRF KRAS-SOS1 interaction assay, KRAS G12S; details: binned ≤2 μM / >2 μM, read-out: Inhibition of KRAS G12S (IC50)
T4 construct: made in house; host or cells: E. coli, e.g. BL21 (DE3)
Outline: as §1

Measured: IC50

T3 sequence (P01116 1-188 isoform P01116-2 G12D): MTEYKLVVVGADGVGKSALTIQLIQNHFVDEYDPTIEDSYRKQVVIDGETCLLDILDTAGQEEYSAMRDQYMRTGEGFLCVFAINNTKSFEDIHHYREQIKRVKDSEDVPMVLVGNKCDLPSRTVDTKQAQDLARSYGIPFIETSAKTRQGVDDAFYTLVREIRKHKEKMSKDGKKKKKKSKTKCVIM
T2 sequence (P01116 1-188 isoform P01116-2): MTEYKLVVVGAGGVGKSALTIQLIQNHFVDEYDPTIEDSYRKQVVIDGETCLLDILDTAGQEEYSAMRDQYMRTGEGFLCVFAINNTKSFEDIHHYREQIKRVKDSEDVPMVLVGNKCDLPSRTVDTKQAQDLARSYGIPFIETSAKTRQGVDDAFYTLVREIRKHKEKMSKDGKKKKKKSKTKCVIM
T1 sequence (P01116 1-188 isoform P01116-2 G12V): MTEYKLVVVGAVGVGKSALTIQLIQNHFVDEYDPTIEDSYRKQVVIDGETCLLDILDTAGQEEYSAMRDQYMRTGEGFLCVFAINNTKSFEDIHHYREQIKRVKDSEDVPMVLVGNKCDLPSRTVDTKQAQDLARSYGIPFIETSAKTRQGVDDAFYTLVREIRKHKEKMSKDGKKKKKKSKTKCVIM
T4 sequence (P01116 1-188 isoform P01116-2 G12S): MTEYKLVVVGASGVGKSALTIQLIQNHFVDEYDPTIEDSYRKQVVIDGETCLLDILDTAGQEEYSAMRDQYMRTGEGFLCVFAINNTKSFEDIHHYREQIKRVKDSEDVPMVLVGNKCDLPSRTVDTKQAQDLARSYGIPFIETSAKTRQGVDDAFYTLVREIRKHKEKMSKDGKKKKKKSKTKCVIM

CC[C@H](c1cc(F)cnc1N)N1CCOc2c(C(F)(F)F)c(-c3ccc(F)c4sc(N)c(C#N)c34)c(F)c3nc(OC[C@@]45CCCN4C[C@H](F)C5)nc1c23 [Compound 870, 2-amino-4-(4-((R)-1-(2-amino-5-fluoropyridin-3-yl)propyl)-10-fluoro-2-(((2R,7aS)-2-fluorotetrahydro-1H-pyrrolizin-7a(5H)-yl)methoxy)-8-(trifluoromethyl)-5,6-dihydro-4H-[1,4]oxazepino[5,6,7-de]quinazolin-9-yl)-7-fluorobenzo[b]thiophene-3-carbonitrile]
≤ 2000 nM: all assays above

C[C@H](c1cccnc1Cl)N1CCOc2c(C(F)(F)F)c(-c3ccc(F)c4sc(N)c(C#N)c34)c(F)c3nc(OC[C@@]45CCCN4C[C@H](F)C5)nc1c23 [Compound 730, 2-amino-4-(4-((R)-1-(2-chloropyridin-3-yl)ethyl)-10-fluoro-2-(((2R,7aS)-2-fluorotetrahydro-1H-pyrrolizin-7a(5H)-yl)methoxy)-8-(trifluoromethyl)-5,6-dihydro-4H-[1,4]oxazepino[5,6,7-de]quinazolin-9-yl)-7-fluorobenzo[b]thiophene-3-carbonitrile]
≤ 2000 nM: all assays above

N#Cc1c(N)sc2c(F)ccc(-c3c(C(F)(F)F)c4c5c(nc(OC[C@@]67CCCN6C[C@H](F)C7)nc5c3F)N([C@H](CCC(F)(F)F)c3cc(Cl)cnc3N)CCO4)c12 [Compound 874, 2-amino-4-(4-((R)-1-(2-amino-5-chloropyridin-3-yl)-4,4,4-trifluorobutyl)-10-fluoro-2-(((2R,7aS)-2-fluorotetrahydro-1H-pyrrolizin-7a(5H)-yl)methoxy)-8-(trifluoromethyl)-5,6-dihydro-4H-[1,4]oxazepino[5,6,7-de]quinazolin-9-yl)-7-fluorobenzo[b]thiophene-3-carbonitrile]
≤ 2000 nM: all assays above

C[C@H](c1cccnc1N)N1CCOc2c(C(F)(F)F)c(-c3ccc(F)c4sc(N)c(C#N)c34)c(F)c3nc(OC[C@@]45CCCN4CC(CN(C)C)C5)nc1c23 (mixture of isomers) [Compound 721, 2-amino-4-(4-((R)-1-(2-aminopyridin-3-yl)ethyl)-2-(((7aS)-2-((dimethylamino)methyl)tetrahydro-1H-pyrrolizin-7a(5H)-yl)methoxy)-10-fluoro-8-(trifluoromethyl)-5,6-dihydro-4H-[1,4]oxazepino[5,6,7-de]quinazolin-9-yl)-7-fluorobenzo[b]thiophene-3-carbonitrile]
≤ 2000 nM: all assays above

C[C@H](c1cc(C2CC2)cnc1N)N1CCOc2c(C(F)(F)F)c(-c3ccc(F)c4sc(N)c(C#N)c34)c(F)c3nc(OC[C@@]45CCCN4C[C@H](F)C5)nc1c23 [Compound 654, 2-amino-4-(4-((R)-1-(2-amino-5-cyclopropylpyridin-3-yl)ethyl)-10-fluoro-2-(((2R,7aS)-2-fluorotetrahydro-1H-pyrrolizin-7a(5H)-yl)methoxy)-8-(trifluoromethyl)-5,6-dihydro-4H-[1,4]oxazepino[5,6,7-de]quinazolin-9-yl)-7-fluorobenzo[b]thiophene-3-carbonitrile]
≤ 2000 nM: all assays above

CCO/N=C(\C)CCC[C@H](c1cccnc1N)N1CCOc2c(C(F)(F)F)c(-c3ccc(F)c4sc(N)c(C#N)c34)c(F)c3nc(OC[C@@]45CCCN4C[C@H](F)C5)nc1c23 (single isomer, unassigned) [Compound 715]
≤ 2000 nM: all assays above

CCO/N=C(\C)CCC[C@H](c1cccnc1N)N1CCOc2c(C(F)(F)F)c(-c3ccc(F)c4sc(N)c(C#N)c34)c(F)c3nc(OC[C@@]45CCCN4C[C@H](F)C5)nc1c23 [Compound 854, 2-amino-4-(4-((R,E)-1-(2-aminopyridin-3-yl)-5-(ethoxyimino)hexyl)-10-fluoro-2-(((2R,7aS)-2-fluorotetrahydro-1H-pyrrolizin-7a(5H)-yl)methoxy)-8-(trifluoromethyl)-5,6-dihydro-4H-[1,4]oxazepino[5,6,7-de]quinazolin-9-yl)-7-fluorobenzo[b]thiophene-3-carbonitrile]
≤ 2000 nM: all assays above

C=CCC(c1cccnc1N)N1CCOc2c(Cl)c(-c3ccc(F)c4sc(N)c(C#N)c34)c(F)c3nc(OC[C@@]45CCCN4C[C@H](F)C5)nc1c23 (mixture of isomers) [Compound 623, 2-amino-4-((9R)-4-(1-(2-aminopyridin-3-yl)but-3-en-1-yl)-8-chloro-10-fluoro-2-(((2R,7aS)-2-fluorotetrahydro-1H-pyrrolizin-7a (5H)-yl)methoxy)-5,6-dihydro-4H-[1,4]oxazepino[5,6,7-de]quinazolin-9-yl)-7-fluorobenzo[b]thiophene-3-carbonitrile]
≤ 2000 nM: all assays above

C[C@H](c1cccnc1N)N1CCOc2c(Cl)c(-c3cccc4sc(N)c(C#N)c34)c(F)c3nc(OC[C@@H]4CCCN4C)nc1c23 [Compound 612, 2-amino-4-(4-((R)-1-(2-aminopyridin-3-yl)ethyl)-8-chloro-10-fluoro-2-(((S)-1-methylpyrrolidin-2-yl)methoxy)-5,6-dihydro-4H-[1,4]oxazepino[5,6,7-de]quinazolin-9-yl)benzo[b]thiophene-3-carbonitrile]
≤ 2000 nM: all assays above

CCN(CC)CCC[C@H](c1cccnc1N)N1CCOc2c(C(F)(F)F)c(-c3ccc(F)c4sc(N)c(C#N)c34)c(F)c3nc(OC[C@@]45CCCN4C[C@H](F)C5)nc1c23 (single isomer, unassigned) [Compound 806]
≤ 2000 nM: all assays above

C=C1CN2CCC[C@@]2(COc2nc3c4c(c(C(F)(F)F)c(-c5ccc(F)c6sc(N)c(C#N)c56)c(F)c4n2)OCCN3[C@H](C)c2cc(Cl)cnc2N)C1 [Compound 690, 2-amino-4-(4-((R)-1-(2-amino-5-chloropyridin-3-yl)ethyl)-10-fluoro-2-(((S)-2-methylenetetrahydro-1H-pyrrolizin-7a(5H)-yl)methoxy)-8-(trifluoromethyl)-5,6-dihydro-4H-[1,4]oxazepino[5,6,7-de]quinazolin-9-yl)-7-fluorobenzo[b]thiophene-3-carbonitrile]
≤ 2000 nM: all assays above

C[C@H](c1cccnc1N)N1CCOc2c(C(F)(F)F)c(-c3ccc(F)c4sc(N)c(C#N)c34)c(F)c3nc(OCC4(CN5CCC(=CF)CC5)CC4)nc1c23 [Compound 814, 2-amino-4-(4-((R)-1-(2-aminopyridin-3-yl)ethyl)-10-fluoro-2-((1-((4-(fluoromethylene)piperidin-1-yl)methyl)cyclopropyl)methoxy)-8-(trifluoromethyl)-5,6-dihydro-4H-[1,4]oxazepino[5,6,7-de]quinazolin-9-yl)-7-fluorobenzo[b]thiophene-3-carbonitrile]
≤ 2000 nM: all assays above

C[C@H](c1ccc(C#N)nc1N)N1CCOc2c(Cl)c(-c3ccc(F)c4sc(N)c(C#N)c34)c(F)c3nc(OC[C@@]45CCCN4C[C@H](F)C5)nc1c23 [Compound 851, 6-amino-5-((1R)-1-(9-(2-amino-3-cyano-7-fluorobenzo[b]thiophen-4-yl)-8-chloro-10-fluoro-2-(((2R,7aS)-2-fluorotetrahydro-1H-pyrrolizin-7a(5H)-yl)methoxy)-5,6-dihydro-4H-[1,4]oxazepino[5,6,7-de]quinazolin-4-yl)ethyl)picolinonitrile]
≤ 2000 nM: all assays above

C[C@H](c1nccnc1N)N1CCOc2c(C(F)(F)F)c(-c3ccc(F)c4sc(N)c(C#N)c34)c(F)c3nc(OC[C@@]45CCCN4C[C@H](F)C5)nc1c23 (single isomer, unassigned) [Compound 760]
≤ 2000 nM: all assays above
